Measurements from patent publication EP4389751A1, “HETEROCYCLIC COMPOUNDS AND USES THEREOF” (Kumquat Biosciences Inc., priority 2021, dated 2024).

Target: T1, K-Ras G12S (Homo sapiens, UniProt P01116, G12S)
T1 construct: made in house; host or cells: E. coli (e.g., BL21 (DE3))
Experiment: HTRF assay of the K-Ras / SOS1 interaction
Format: biochemical
Details: IC50 (against K-Ras G12D) to IC50 (against K-Ras G12S)
Description: This assay can be also used to assess a selective inhibition or reduction of signaling output of a mutant Ras protein relative to a wildtype, or relative to a different mutant Ras protein. For example, the equilibrium interaction of wildtype Kras or K-Ras mutant (e.g., wildtype or a mutant thereof including those mentioned in Example 6) with SOS1 (e.g., hSOS1) can be assessed as a proxy or an indication for a subject compound's ability to bind and inhibit Ras protein. HTRF assay detects from (i) a fluorescence resonance energy transfer (FRET) donor (e.g., antiGST-Europium) that is bound to GST-tagged K-Ras mutant to (ii) a FRET acceptor (e.g., anti-6His-XL665) bound to a His-tagged hSOS 1.
The assay buffer can contain ~5 mM HEPES pH 7.4, -150 mM NaCI, - 1 mM DTT, 0.05% BSA and 0.0025% (v/v) Igepal. A Ras working solution is prepared in an assay buffer containing typically a suitable amount of the protein construct (e.g., GST-tagged K-Ras mutant) and the FRET donor (e.g., antiGST-Eu(K) from Cisbio, France). A SOS1 working solution is prepared in an assay buffer containing suitable amount of the protein construct (e.g., His-hSOS1) and the FRET acceptor (e.g., anti-6His-XL665 from Cisbio, France). A suitable amount of the protein construct will depend on the range of activity or range of IC50 values being detected or under investigation. For detecting IC50 within a range of 500 nM, the protein constructs of the same range of molarity can be utilized.
A fixed volume of DMSO with or without test compound is transferred into a 384-well plate. Ras working solution is added to all wells of the test plate. SOS1 working solution is added to all wells except for those that are subsequently filled the inhibitor control solution. Upon incubation for about 10 minutes or longer, the fluorescence is measured with a M1000Pro plate reader (Tecan) using HTRF detection (excitation 337nm, emission 1 : 620nm, emission 2: 665nm). Compounds are tested in duplicates at different concentrations (for example, 10 µM, 2.5 µM, 0.63 µM, 0.16 µM, 0.04 µM, 0.01 µM test compound). The ratiometric data (i.e., emission 2 divided by emission 1) is used to calculate IC50 values against Ras using GraphPad Prism (GraphPad software). Following this general procedure, samples were tested with or without a subject compound disclosed herein including compounds exemplified in Table 3 to assess their abilities to inhibit K-Ras G12S relative to another mutant (e.g., K-Ras G12D). Signaling output measured in terms of IC50 values can be obtained, a ratio of IC50 against one mutant relative to another mutant can be calculated. For instance, a selective reduction of K-Ras G12S signaling output can be evidenced by a ratio greater than one. In particular, a selective reduction of K-Ras G12S signaling relative to K-Ras G12D signaling is evidenced as the ratio of IC50 (against K-Ras G12D) to IC50 (against K-Ras G12S) is greater than 1. […]

T1 sequence (P01116 1-188 isoform P01116-2 G12S): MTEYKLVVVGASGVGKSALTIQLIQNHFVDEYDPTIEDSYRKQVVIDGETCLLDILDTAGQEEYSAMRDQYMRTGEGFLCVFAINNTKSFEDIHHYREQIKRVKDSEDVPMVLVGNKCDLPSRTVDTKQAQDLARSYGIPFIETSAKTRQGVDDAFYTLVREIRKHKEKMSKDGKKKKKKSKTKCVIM

| Structure (SMILES) | Ratio of IC50 KRAS G12D vs. IC50 KRAS G12S |
| --- | --- |
| C[C@H](Oc1nc(N2CCCCC3(CN(C(=O)n4cncn4)C3)C2)c2cc(Cl)c(-c3ccc(F)c4sc(N)c(C#N)c34)c(F)c2n1)[C@@H]1CCCN1C [Compound A167, 4-(4-(2-(1H-1,2,4-triazole-1-carbonyl)-2,6-diazaspiro[3.6]decan-6-yl)-6-chloro-8-fluoro-2-((S)-1-((S)-1-methylpyrrolidin-2-yl)ethoxy)quinazolin-7-yl)-2-amino-7-fluorobenzo[b]thiophene-3-carbonitrile] | A (A: indicates that the ratio of IC50 against KrasG12D vs. IC50 against KrasG12S is 1-fold or greater) |
| CN1CCC[C@H]1COc1nc(N2CC3CCC(C2)N3C(=O)n2cc(C#N)cn2)c2cc(Cl)c(-c3ccc(F)c4sc(N)nc34)c(F)c2n1 [Compound A259, 1-(3-(7-(2-amino-7-fluorobenzo[d]thiazol-4-yl)-6-chloro-8-fluoro-2-(((S)-1-methylpyrrolidin-2-yl)methoxy)quinazolin-4-yl)-3,8-diazabicyclo[3.2.1]octane-8-carbonyl)-1H-pyrazole-4-carbonitrile] | A (A: indicates that the ratio of IC50 against KrasG12D vs. IC50 against KrasG12S is 1-fold or greater) |
| Nc1nc2c(-c3c(Cl)cc4c(NC5CCN(C(=O)n6cccn6)CC5)nc(OC[C@@]56CCCN5C[C@H](F)C6)nc4c3F)ccc(F)c2s1 [Compound A254, (4-((7-(2-amino-7-fluorobenzo[d]thiazol-4-yl)-6-chloro-8-fluoro-2-(((2R,7aS)-2-fluorotetrahydro-1H-pyrrolizin-7a(5H)-yl)methoxy)quinazolin-4-yl)amino)piperidin-1-yl)(1H-pyrazol-1-yl)methanone] | A (A: indicates that the ratio of IC50 against KrasG12D vs. IC50 against KrasG12S is 1-fold or greater) |
| Nc1nc2c(-c3c(Cl)cc4c(N5CC(N6CCN(C(=O)n7cncn7)CC6)C5)nc(OC[C@@]56CCCN5C[C@H](F)C6)nc4c3F)ccc(F)c2s1 [Compound A166, (4-(1-(7-(2-amino-7-fluorobenzo[d]thiazol-4-yl)-6-chloro-8-fluoro-2-(((2R,7aS)-2-fluorotetrahydro-1H-pyrrolizin-7a(5H)-yl)methoxy)quinazolin-4-yl)azetidin-3-yl)piperazin-1-yl)(1H-1,2,4-triazol-1-yl)methanone] | A (A: indicates that the ratio of IC50 against KrasG12D vs. IC50 against KrasG12S is 1-fold or greater) |
| N#Cc1ccn(C(=O)N2CCC(Nc3nc(OC[C@@]45CCCN4C[C@H](F)C5)nc4c(F)c(-c5ccc(F)c6sc(N)nc56)c(Cl)cc34)CC2)n1 [Compound A173, 1-(4-((7-(2-amino-7-fluorobenzo[d]thiazol-4-yl)-6-chloro-8-fluoro-2-(((2R,7aS)-2-fluorotetrahydro-1H-pyrrolizin-7a(5H)-yl)methoxy)quinazolin-4-yl)amino)piperidine-1-carbonyl)-1H-pyrazole-3-carbonitrile] | A (A: indicates that the ratio of IC50 against KrasG12D vs. IC50 against KrasG12S is 1-fold or greater) |
| N#Cc1nccn1C(=O)N1CCC(Nc2nc(OC[C@@]34CCCN3C[C@H](F)C4)nc3c(F)c(-c4ccc(F)c5sc(N)nc45)c(Cl)cc23)CC1 [Compound A155, 1-(4-((7-(2-amino-7-fluorobenzo[d]thiazol-4-yl)-6-chloro-8-fluoro-2-(((2R,7aS)-2-fluorotetrahydro-1H-pyrrolizin-7a(5H)-yl)methoxy)quinazolin-4-yl)amino)piperidine-1-carbonyl)-1H-imidazole-2-carbonitrile] | A (A: indicates that the ratio of IC50 against KrasG12D vs. IC50 against KrasG12S is 1-fold or greater) |
| Nc1nc2c(-c3c(Cl)cc4c(NC5C6CN(C(=O)n7cncn7)CC65)nc(OC[C@@]56CCCN5C[C@H](F)C6)nc4c3F)ccc(F)c2s1 (stereo partly drawn) [Compound A299, (6-((7-(2-amino-7-fluorobenzo[d]thiazol-4-yl)-6-chloro-8-fluoro-2-(((2R,7aS)-2-fluorotetrahydro-1H-pyrrolizin-7a(5H)-yl)methoxy)quinazolin-4-yl)amino)-3-azabicyclo[3.1.0]hexan-3-yl)(1H-1,2,4-triazol-1-yl)methanone] | A (A: indicates that the ratio of IC50 against KrasG12D vs. IC50 against KrasG12S is 1-fold or greater) |
| Nc1nc2c(-c3c(Cl)cc4c(NC5CCN(C(=O)Nc6ncccn6)CC5)nc(OC[C@@]56CCCN5C[C@H](F)C6)nc4c3F)ccc(F)c2s1 [Compound A262, 4-((7-(2-amino-7-fluorobenzo[d]thiazol-4-yl)-6-chloro-8-fluoro-2-(((2R,7aS)-2-fluorotetrahydro-1H-pyrrolizin-7a(5H)-yl)methoxy)quinazolin-4-yl)amino)-N-(pyrimidin-2-yl)piperidine-1-carboxamide] | A (A: indicates that the ratio of IC50 against KrasG12D vs. IC50 against KrasG12S is 1-fold or greater) |
| N#Cc1c(N)sc2c(F)ccc(-c3c(Cl)cc4c(OC5CCN(C(=O)Nc6nccs6)C5)nc(OC[C@@]56CCCN5C[C@H](F)C6)nc4c3F)c12 (stereo partly drawn) [Compound A150, 3-((7-(2-amino-3-cyano-7-fluorobenzo[b]thiophen-4-yl)-6-chloro-8-fluoro-2-(((2R,7aS)-2-fluorotetrahydro-1H-pyrrolizin-7a(5H)-yl)methoxy)quinazolin-4-yl)oxy)-N-(thiazol-2-yl)pyrrolidine-1-carboxamide] | A (A: indicates that the ratio of IC50 against KrasG12D vs. IC50 against KrasG12S is 1-fold or greater) |
| CO[C@@H]1CN(C)C[C@H]1Oc1nc(N2CC3CCC(C2)N3C(=O)n2cc(C#N)cn2)c2cc(Cl)c(-c3ccc(F)c4sc(N)nc34)c(F)c2n1 [Compound A248, 1-(3-(7-(2-amino-7-fluorobenzo[d]thiazol-4-yl)-6-chloro-8-fluoro-2-(((3R,4R)-4-methoxy-1-methylpyrrolidin-3-yl)oxy)quinazolin-4-yl)-3,8-diazabicyclo[3.2.1]octane-8-carbonyl)-1H-pyrazole-4-carbonitrile] | A (A: indicates that the ratio of IC50 against KrasG12D vs. IC50 against KrasG12S is 1-fold or greater) |
| C[C@H](Oc1nc(N2CCN(C(=O)Nc3nccs3)CC(O)C2)c2cc(Cl)c(-c3ccc(F)c4sc(N)c(C#N)c34)c(F)c2n1)[C@@H]1CCCN1C (stereo partly drawn) [Compound A118, 4-(7-(2-amino-3-cyano-7-fluorobenzo[b]thiophen-4-yl)-6-chloro-8-fluoro-2-((S)-1-((S)-1-methylpyrrolidin-2-yl)ethoxy)quinazolin-4-yl)-6-hydroxy-N-(thiazol-2-yl)-1,4-diazepane-1-carboxamide] | A (A: indicates that the ratio of IC50 against KrasG12D vs. IC50 against KrasG12S is 1-fold or greater) |
| C[C@H](Oc1nc(OC2CCN(C(=O)Nc3nccs3)C2)c2cc(Cl)c(-c3ccc(F)c4sc(N)c(C#N)c34)c(F)c2n1)[C@@H]1CCCN1C (stereo partly drawn) [Compound A237, 3-((7-(2-amino-3-cyano-7-fluorobenzo[b]thiophen-4-yl)-6-chloro-8-fluoro-2-((S)-1-((S)-1-methylpyrrolidin-2-yl)ethoxy)quinazolin-4-yl)oxy)-N-(thiazol-2-yl)pyrrolidine-1-carboxamide] | A (A: indicates that the ratio of IC50 against KrasG12D vs. IC50 against KrasG12S is 1-fold or greater) |
| N#Cc1ccn(C(=O)N2CC3CCC(C2)N3c2nc(OC[C@@]34CCCN3C[C@H](F)C4)nc3c(F)c(-c4ccc(F)c5sc(N)nc45)c(Cl)cc23)c1 [Compound A290, 1-(8-(7-(2-amino-7-fluorobenzo[d]thiazol-4-yl)-6-chloro-8-fluoro-2-(((2R,7aS)-2-fluorotetrahydro-1H-pyrrolizin-7a(5H)-yl)methoxy)quinazolin-4-yl)-3,8-diazabicyclo[3.2. 1]octane-3-carbonyl)-1H-pyrrole-3-carbonitrile] | A (A: indicates that the ratio of IC50 against KrasG12D vs. IC50 against KrasG12S is 1-fold or greater) |
